According to PMC9414986, “Phytochemical Characterization of Cannabis sativa L. Chemotype V Reveals Three New Dihydrophenanthrenoids That Favorably Reprogram Lipid Mediator Biosynthesis in Macrophages” (Plants, 2022):

Assays:
[1] = system: 5-lipoxygenase (5-LOX) pathway; set-up: method as in PMID 28165233; details: cited from earlier work
COX product formation = COX product formation in activated human M1 macrophages (metabololipidomics); type: cell-based
Excerpt: (§1) Leukocyte reduction system chamber (LRSC) filters were provided by the Central Institute for Blood Transfusion and Immunological Department of Tirol Kliniken GmbH (Austria) with the informed consent of the volunteers. Only healthy blood donors between 18 and 65 years of age without medication for chronic diseases, fever, or deficiency symptoms and after physical examinations by trained medical personnel were included in the study. Human peripheral blood mononuclear cells (PBMC) were freshly isolated from LRSC filters. After dilution of the cell concentrates in PBS pH 7.4 containing 12.5 mM citrate and 14 mM glucose (130 mL, 37 °C), immune cells were separated via isopycnic density gradient centrifugation (400× g, 20 min, RT) using Histopaque®-1077 (Sigma-Alrich, St. Louis, MO, USA). PBMC were obtained from the interphase after hypotonic lysis of erythrocytes using water (2–5 mL) and two consecutive washing steps with PBS pH 7.4 (50 mL) (270× g, 5 min, RT). […]
(§2) Lipid mediator biosynthesis in human M1/M2 macrophages (1.5 mL PBS pH 7.4 plus 1 mM CaCl2) was stimulated with Staphylococcus aureus (LS1)-conditioned medium (1.0%, 3 h) after 15 min preincubation with DMSO (0.1%) or test compounds and stopped by addition of ice-cold MeOH (2.5 mL) containing deuterium-labeled internal standards (200 pg d8-5S-hydroxyeicosatetraenoic acid (HETE), d4-leukotriene (LT)B4, d5-lipoxin (LX)A4, d5-resolvin (Rv)D2, d4-prostaglandin (PG)E2, and 2000 pg d8-arachidonic acid (Cayman Chemical, Ann Arbor, MI, USA)). […] The gradient of mobile phase A (water/MeOH, 90/10, 0.01% acetic acid) and mobile phase B (MeOH, 0.01% acetic acid) was ramped at a flow rate of 0.35 mL/min from 35.6% to 84.4% B within 12.5 min followed by 5 min of isocratic elution at 97.8% B. Lipid mediators and fatty acids were analyzed in the negative ion mode by scheduled multiple reaction monitoring (detection window: 120 s) using a QTRAP 6500^+ Mass Spectrometer (Sciex), which was equipped with an electrospray ionization source. […]

5-LOX product formation = 5-LOX product formation in activated human M1 macrophages (metabololipidomics); details: Macrophage, cell-based, Staphylococcus aureus-conditioned medium 1.0%, 3 h, 15 min preincubation, read-out: IC50 for inhibition of 5-LOX product formation
Excerpt: as §1, §2

human M2 macrophages = experiment: lipid mediator profile (SPMs, precursors, free PUFAs) in activated human M2 macrophages; type: cell-based
Excerpt: Leukocyte reduction system chamber (LRSC) filters were provided by the Central Institute for Blood Transfusion and Immunological Department of Tirol Kliniken GmbH (Austria) with the informed consent of the volunteers. Only healthy blood donors between 18 and 65 years of age without medication for chronic diseases, fever, or deficiency symptoms and after physical examinations by trained medical personnel were included in the study. Human peripheral blood mononuclear cells (PBMC) were freshly isolated from LRSC filters. After dilution of the cell concentrates in PBS pH 7.4 containing 12.5 mM citrate and 14 mM glucose (130 mL, 37 °C), immune cells were separated via isopycnic density gradient centrifugation (400× g, 20 min, RT) using Histopaque®-1077 (Sigma-Alrich, St. Louis, MO, USA). PBMC were obtained from the interphase after hypotonic lysis of erythrocytes using water (2–5 mL) and two consecutive washing steps with PBS pH 7.4 (50 mL) (270× g, 5 min, RT).
To differentiate monocytes, which are the predominant cell type in PBMC, towards M0 macrophages, they were first stimulated with 20 ng/mL GM-CSF or M-CSF (HiSS Diagnostics GmbH, Freiburg, Germany) for 6 days in macrophage medium (RPMI 1640 supplemented with 10% FCS, 2 mmol/L L-glutamine, 100 U/mL penicillin and 100 μg/mL streptomycin). These monocyte-derived macrophages were polarized for another 48 h in macrophage medium with 100 ng/mL lipopolysaccharide and 20 ng/mL interferon-γ (Peprotech, Hamburg, Germany) to obtain M1 or with 20 ng/mL interleukin-4 (Peprotech, Hamburg, Germany) to obtain M2 phenotypes.
Lipid mediator biosynthesis in human M1/M2 macrophages (1.5 mL PBS pH 7.4 plus 1 mM CaCl2) was stimulated with Staphylococcus aureus (LS1)-conditioned medium (1.0%, 3 h) after 15 min preincubation with DMSO (0.1%) or test compounds and stopped by addition of ice-cold MeOH (2.5 mL) containing deuterium-labeled internal standards (200 pg d8-5S-hydroxyeicosatetraenoic acid (HETE), d4-leukotriene (LT)B4, d5-lipoxin (LX)A4, d5-resolvin (Rv)D2, d4-prostaglandin (PG)E2, and 2000 pg d8-arachidonic acid (Cayman Chemical, Ann Arbor, MI, USA)). Samples were incubated at −20 °C for at least 1 h to precipitate proteins and then centrifuged (750× g, 10 min, 4 °C). The supernatant was mixed with acidified water (7 mL, pH 3.5) and loaded onto solid phase cartridges (Sep-Pak® Vac 6cc 500 mg/6 mL C-18 (Waters, Milford, MA, USA)), which were conditioned with MeOH (6 mL) and equilibrated with water (2 mL). Columns were washed with water (6 mL) and hexane (6 mL, 4 °C) before lipid mediators were eluted with methyl formiate (6 mL). The organic phase was evaporated to dryness using a TurboVap LV (Biotage, Uppsala, Sweden) and the remaining lipids were dissolved in MeOH/water (1:1), centrifuged twice (21,100× g, 4 °C, 5 min), and subjected to UPLC-MS/MS analysis. Chromatographic separation of lipid mediators was carried out at 55°C on an Acquity UPLC BEH C-18 column (130Å, 1.7 μm, 2.1 × 100 mm, Waters) using an ExionLC AD UHPLC system (Sciex, Framingham, MA, USA). The gradient of mobile phase A (water/MeOH, 90/10, 0.01% acetic acid) and mobile phase B (MeOH, 0.01% acetic acid) was ramped at a flow rate of 0.35 mL/min from 35.6% to 84.4% B within 12.5 min followed by 5 min of isocratic elution at 97.8% B. Lipid mediators and fatty acids were analyzed in the negative ion mode by scheduled multiple reaction monitoring (detection window: 120 s) using a QTRAP 6500^+ Mass Spectrometer (Sciex), which was equipped with an electrospray ionization source. The curtain gas was set to 40 psi, the collision gas to medium, the ion spray voltage to −4000 V, the heated capillary temperature to 500 °C, and the sheath and auxiliary gas pressure to 40 psi. Transitions selected for quantitation and the corresponding declustering potential (DP), entrance potential (EP), collision energy (CE) and collision cell exit potential (CXP) are listed in Table 4. […]

[2] = system: soluble epoxide hydrolase (sEH); experiment: cellular sEH activity (DHETs/EETs ratio) in human M2 macrophages; type: cell-based
Excerpt: (§3) Leukocyte reduction system chamber (LRSC) filters were provided by the Central Institute for Blood Transfusion and Immunological Department of Tirol Kliniken GmbH (Austria) with the informed consent of the volunteers. Only healthy blood donors between 18 and 65 years of age without medication for chronic diseases, fever, or deficiency symptoms and after physical examinations by trained medical personnel were included in the study. Human peripheral blood mononuclear cells (PBMC) were freshly isolated from LRSC filters. […]
(§4) Lipid mediator biosynthesis in human M1/M2 macrophages (1.5 mL PBS pH 7.4 plus 1 mM CaCl2) was stimulated with Staphylococcus aureus (LS1)-conditioned medium (1.0%, 3 h) after 15 min preincubation with DMSO (0.1%) or test compounds and stopped by addition of ice-cold MeOH (2.5 mL) containing deuterium-labeled internal standards (200 pg d8-5S-hydroxyeicosatetraenoic acid (HETE), d4-leukotriene (LT)B4, d5-lipoxin (LX)A4, d5-resolvin (Rv)D2, d4-prostaglandin (PG)E2, and 2000 pg d8-arachidonic acid (Cayman Chemical, Ann Arbor, MI, USA)). […] Transitions selected for quantitation and the corresponding declustering potential (DP), entrance potential (EP), collision energy (CE) and collision cell exit potential (CXP) are listed in Table 4. […]

human recombinant 5-LOX = target: T1, human recombinant 5-LOX (Homo sapiens, UniProt P09917); experiment: cell-free 5-lipoxygenase activity assay; type: biochemical; details: arachidonic acid 20 µM, 10 min at 37 °C, read-out: IC50 for inhibition of human recombinant 5-LOX
T1 construct: purchased Cayman Chemical
T1 sequence (P09917 1-674): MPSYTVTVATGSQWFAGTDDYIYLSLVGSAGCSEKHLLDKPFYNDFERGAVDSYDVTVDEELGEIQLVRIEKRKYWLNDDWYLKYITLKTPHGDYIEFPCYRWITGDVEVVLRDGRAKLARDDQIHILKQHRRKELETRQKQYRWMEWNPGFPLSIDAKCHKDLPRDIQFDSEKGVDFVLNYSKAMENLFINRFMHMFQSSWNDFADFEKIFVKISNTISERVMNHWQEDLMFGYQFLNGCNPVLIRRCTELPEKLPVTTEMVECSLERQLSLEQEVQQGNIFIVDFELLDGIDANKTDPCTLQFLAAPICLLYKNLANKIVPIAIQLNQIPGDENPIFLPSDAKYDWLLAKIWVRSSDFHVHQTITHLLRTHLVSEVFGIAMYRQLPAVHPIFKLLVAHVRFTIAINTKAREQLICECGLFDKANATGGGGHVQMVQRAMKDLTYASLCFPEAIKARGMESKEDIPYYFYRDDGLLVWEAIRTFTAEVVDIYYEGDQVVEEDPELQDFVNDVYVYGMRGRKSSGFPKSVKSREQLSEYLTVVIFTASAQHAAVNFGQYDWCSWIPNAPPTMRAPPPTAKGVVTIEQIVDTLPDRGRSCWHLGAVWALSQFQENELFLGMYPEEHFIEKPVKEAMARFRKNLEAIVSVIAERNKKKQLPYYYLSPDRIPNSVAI
Experimental: Human recombinant 5-LOX (Cayman Chemical, 10 U) was pre-treated with vehicle (DMSO, 0.1%) or test compounds for 10 min in 1 mL PBS pH 7.4, 1 mM EDTA and 1 mM ATP on ice before CaCl2 (2 mM) and arachidonic acid (20 µM) were added. After 10 min at 37 °C, the reaction was stopped by the addition of ice-cold MeOH (1 mL) and PGB1 (2 ng) as internal standard. Clean-Up C-18 Endcapped SPE cartridges (100 mg, 10 mL, UCT, Bristol, PA, USA) were conditioned with MeOH (1 mL, twice) and equilibrated with water (1 mL). After acidification (530 µL PBS plus 60 mM HCl) and centrifugation (750× g, 10 min, 4 °C), supernatants containing lipid mediators were loaded onto the columns, which were first washed with water (1 mL) and then MeOH/water (25:75, 1 mL). After elution of lipid mediators with MeOH (300 µL), water (120 µL) was added and samples were centrifuged (21,100× g, 10 min, 4 °C) and subjected to LC-PDA analysis. 5-LOX products, including all trans-isomers of LTB4 and 5-HETE, were separated at 40 °C and a flow rate of 0.45 mL/min on a Kinetex C-18 LC column (100Å, 1.3 μm, 2.1 × 50 mm, Phenomenex, Torrance, CA) using a Nexera X2 UHPLC system (Shimadzu, Kyoto, Japan). The step gradient of mobile phase A (water/MeOH, 50/50, 0.05% trifluoroacetic acid) and mobile phase B (MeOH, 0.05% trifluoroacetic acid) was kept at 14% B for 2 min, followed by 46% B for 2 min and 90% B for another 2 min. LTB4 isomers and 5-HETE were detected with a photodiode array detector (SPD-M20A, Shimadzu, Kioto, Japan) at 280 nm and 235 nm, respectively. Lipid quantitieswere calculated by internal calibration using PGB1 as reference standard.
Data are expressed as mean ± s.e.m. and single data from n = 4–8 independent experiments. […] Data were analyzed using Microsoft Excel (Office 365, Version: 2204, Albuquerque, New Mexico), and statistics were performed using GraphPad Prism (GraphPad Software version 9.3.1, Dotmatics, Boston, UK). IC50 values were calculated by non-linear regression (GraphPad Prism 9.3.1).

cell apoptosis = system: cell apoptosis; set-up: method as in PMID 18840408, PMID 18262737; details: cited from earlier work
[3] = system: microsomal prostaglandin E2 synthase (mPGES)-1; set-up: method as in doi:10.1016/j.phanu.2014.05.001; details: cited from earlier work
12/15-LOX product levels = experiment: 12- and 15-LOX product levels in activated macrophages; type: cell-based, human
Excerpt: as §3, §4

COc1cc(O)cc(CCc2ccc(OC)c(O)c2CC=C(C)C)c1 [Compound 6, canniprene]
production of inflammatory eicosanoids via the 5-LOX pathway [1]: potently inhibits

COc1cc2c(c(OC)c1O)-c1c(ccc(OC)c1O)CC2 [Compound 10, 9,10-dihydro-2,4,6-trimethoxy-3,5-phenanthrenediol]
effect on COX product formation (COX product formation): substantially elevated
IC50 (5-LOX product formation): 8.5 µM
maresin 2 (MaR2) levels (human M2 macrophages): selectively increased
production of specialized pro-resolving mediators (SPMs) (human M2 macrophages): stimulated
ratio of DHETs/EETs (indicator of sEH activity) [2]: only increased by trend
IC50 (human recombinant 5-LOX): 4.6 µM

COC1=CC(=O)c2ccc3cc(OC)cc(O)c3c2C1=O [Compound 4, denbinobin]
cell apoptosis induction (cell apoptosis): cell apoptosis-inducing properties

COc1cc(O)c2c(c1)CCc1cc(OC)c(OC)c(O)c1-2 [Compound 9, 9,10-dihydro-2,3,7-trimethoxy-4,5-phenanthrenediol]
effect on COX product formation (COX product formation): substantially elevated
IC50 (5-LOX product formation): 3.8 µM
D-series Rv (RvDs) levels (human M2 macrophages): raised
formation of SPM precursors, including 17-HDHA, 15-HEPE and 15-HETE (human M2 macrophages): enhanced formation
maresin 2 (MaR2) levels (human M2 macrophages): raised
production of specialized pro-resolving mediators (SPMs) (human M2 macrophages): stimulated
protectins (PDs) levels (human M2 macrophages): raised
IC50 (human recombinant 5-LOX): 6.9 µM

COc1cc(-c2cc(=O)c3c(O)c(CC=C(C)C)c(O)cc3o2)ccc1O [Compound 8, cannflavin B]
inhibition of mPGES-1 [3]: potent inhibitors

COc1cc(-c2cc(=O)c3c(O)c(C/C=C(\C)CCC=C(C)C)c(O)cc3o2)ccc1O [Compound 7a, cannflavin A]
inhibition of mPGES-1 [3]: potent inhibitors

COC1=CC(=O)C2=C(C1=O)c1c(cc(OC)cc1OC)CC2 [Compound 5, 9,10-dihydro-3,5,7-trimethoxy-1,4-phenanthrenequinone]
IC50 (COX product formation; Macrophage, cell-based, Staphylococcus aureus-conditioned medium, read-out: IC50 for inhibition of COX product (prostanoid) formation): 2 µM
12/15-LOX product levels (12/15-LOX product levels): slightly but significantly lowered
IC50 (5-LOX product formation): 1 µM
D-series Rv (RvDs) levels (human M2 macrophages): but not RvDs levels
maresin 2 (MaR2) levels (human M2 macrophages): elevated
protectins (PDs) levels (human M2 macrophages): elevated
release of polyunsaturated fatty acids (PUFAs) (human M2 macrophages): decreased
ratio of DHETs/EETs (indicator of sEH activity) [2]: significantly elevated
IC50 (human recombinant 5-LOX): 20.1 µM
